Measured values published in patent publication US11415579B2, “Assay for measuring a rate of reaction between a target and a ligand candidate” (Imperial College Innovations Ltd., priority 2016, dated 2022).
Several values for one entry are separate records, joined by “and”; a condition that tells them apart may be missing. Equal entries are not always repeated.

Columns and labels:
Cdk2(H71C) (C177A) = molecular target: T1, Cdk2(H71C) (C177A) (Homo sapiens, UniProt P24941, C177A/H71C); assay: Kinetic thiol consumption assay with Cdk2 mutant H71C; assay type: binding; design: key to Rate enhancement, Cdk2 H71C: rate constant with Cdk2 ÷ rate constant with model thiol (fold); conditions: additional mutation C177A; for Rate constant with Cdk2 H71C: Protein: Cdk2, cysteine position H71C, in h^-1
T1 construct: poly-histidine; made in house; host or cells: E. coli
In short: (§1)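 Thiol consumption was monitored kinetically using 5 μM Cdk2 (C177A plus one introduced cysteine) in degassed phosphate buffer at pH 8 with TCEP beads. Plates were kept 1 h at room temperature before fluorescence reading, and rate constants came from exponential decay fitting.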

Cdk2(N272C) (C177A) = molecular target: T2, Cdk2(N272C) (C177A) (Homo sapiens, UniProt P24941, C177A/N272C); assay: Kinetic thiol consumption assay with Cdk2 mutant N272C; assay type: binding; design: key to Rate enhancement, Cdk2 N272: rate constant with Cdk2 ÷ rate constant with model thiol (fold); conditions: for Rate enhancement, Cdk2 N272: Cdk2 N272, additional mutation C177A; for Rate constant with Cdk2 N272C: Protein: Cdk2, cysteine position N272C, additional mutation C177A, in h^-1
T2 construct: poly-histidine; made in house; host or cells: E. coli
In short: as §1

Cdk2(S276C) (C177A) = molecular target: T3, Cdk2(S276C) (C177A) (Homo sapiens, UniProt P24941, C177A/S276C); assay: Kinetic thiol consumption assay with Cdk2 mutant S276C; assay type: binding; design: key to Rate enhancement, Cdk2 S276C: rate constant with Cdk2 ÷ rate constant with model thiol (fold); conditions: additional mutation C177A; for Rate constant with Cdk2 S276C: Protein: Cdk2, cysteine position S276C, in h^-1
T3 construct: poly-histidine; made in house; host or cells: E. coli
In short: as §1

[1] = molecular target: T4, human cyclin-dependent kinase 2 (Cdk2) (Homo sapiens, UniProt P24941); assay: Kinetic thiol consumption assay with wild type Cdk2 (C177); assay type: binding; design: key to Rate enhancement, Cdk2 WT: k(Cdk2) divided by k(model thiol); Rate constant with Cdk2 (k(Cdk2)): unit not given here; conditions: for Rate constant with Cdk2 (k(Cdk2)): 500 μM ligand, 5 μM thiol, phosphate buffer pH 8; for Rate enhancement, Cdk2 WT: no additional mutations; for Rate constant with Cdk2 WT: Protein: Cdk2, cysteine position WT, in h^-1; for k(Cdk2)/k(Cdk2_mut) rate enhancement: model thiol Cdk2[C177A, F80C, K278C]; for k(Cdk2)/k(GSH) rate enhancement: model thiol glutathione
T4 construct: poly-histidine; made in house; host or cells: E. coli
In short: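 Rate enhancement: first-order decay constant with Cdk2 over that with a model thiol. Thiols (5 μM, degassed phosphate buffer pH 8, immobilized TCEP) were incubated with acrylamides at room temperature, and thiol consumption followed by fluorescence at 380/470 nm, normalized to DMSO control. Cdk2 was His-tagged, E. coli-expressed, with one surface cysteine (C177).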

Cdk2(C177A, F80C) = molecular target: T5, Cdk2(C177A, F80C) (Homo sapiens, UniProt P24941, C177A/F80C); assay: Kinetic thiol consumption assay with Cdk2 mutant F80C, incl. kobs versus concentration (Kd, k2); assay type: binding; design: key to Rate enhancement, Cdk2 F80C: Cdk2 rate constant divided by model-thiol rate constant; conditions: additional mutation C177A; for Rate constant with Cdk2 F80C: Protein: Cdk2, cysteine position F80C, in h^-1
T5 construct: poly-histidine; made in house; host or cells: E. coli
In short: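 His-tagged Cdk2(C177A/F80C) from E. coli or model thiol, 5 μM in degassed phosphate buffer pH 8 with TCEP beads, reacted with acrylamide ligands; fluorescence (ex/em 380/470 nm) normalized to DMSO control and fitted to first-order decay for kobs. Kd and k2 obtained from hyperbolic fit of kobs versus ligand concentration.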

Cdk2(R122C) (C177A) = molecular target: T6, Cdk2(R122C) (C177A) (Homo sapiens, UniProt P24941, C177A/R122C); assay: Kinetic thiol consumption assay with Cdk2 mutant R122C; assay type: binding; design: key to Rate enhancement, Cdk2 R122C: rate constant with Cdk2 ÷ rate constant with model thiol (fold); conditions: additional mutation C177A; for Rate constant with Cdk2 R122C: Protein: Cdk2, cysteine position R122C, in h-1
T6 construct: poly-histidine; made in house; host or cells: E. coli
In short: as §1

Cdk2(T182C) (C177A) = molecular target: T7, Cdk2(T182C) (C177A) (Homo sapiens, UniProt P24941, C177A/T182C); assay: Kinetic thiol consumption assay with Cdk2 mutant T182C; assay type: binding; design: key to Rate enhancement, Cdk2 T182C: rate constant with Cdk2 ÷ rate constant with model thiol (fold); conditions: additional mutation C177A; for Rate constant with Cdk2 T182C: Protein: Cdk2, cysteine position T182C, in h^-1
T7 construct: poly-histidine; made in house; host or cells: E. coli
In short: as §1

[2] = Kinetic thiol consumption assay with model thiol glutathione; assay type: physicochemical; design: Rate constant with glutathione (k(GSH)): unit not given here; conditions: for Rate constant with glutathione (k(GSH)): 500 μM ligand, 5 μM thiol, phosphate buffer pH 8; for Rate constant with Glutathione: Protein: Glutathione, cysteine position NA, in h-1
In short: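 GSH 5 μM, degassed phosphate buffer pH 8, TCEP beads 2% v/v; acrylamide added; RT, 1 h; fluorescence ex/em 380/470 nm; normalized to DMSO/thiol control; k from first-order exponential decay fit.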

Cdk2[C177A, F80C, K278C] = molecular target: T8, Cdk2[C177A, F80C, K278C] (Homo sapiens, UniProt P24941, C177A/F80C/K278C); assay: Kinetic thiol consumption assay with mutant Cdk2 as model thiol; assay type: binding; design: unit not given here; conditions: 500 μM ligand, 5 μM thiol, phosphate buffer pH 8
T8 construct: poly-histidine; made in house; host or cells: E. coli
In short: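 First-order rate constants were derived by exponential-decay fitting of DMSO/thiol-normalized fluorescence (380/470 nm) over time at room temperature. Thiol was 5 μM E. coli-expressed His-tagged Cdk2 mutant C177A/F80C/K278C in degassed pH 8 phosphate buffer containing 2% v/v TCEP beads.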

Cdk2(S181C) (C177A) = molecular target: T9, Cdk2(S181C) (C177A) (Homo sapiens, UniProt P24941, C177A/S181C); assay: Kinetic thiol consumption assay with Cdk2 mutant S181C; assay type: binding; design: key to Rate enhancement, Cdk2 S181C: rate constant with Cdk2 ÷ rate constant with model thiol (fold); conditions: additional mutation C177A; for Rate constant with Cdk2 S181C: Protein: Cdk2, cysteine position S181C, in h^-1
T9 construct: poly-histidine; made in house; host or cells: E. coli
In short: as §1

Rate enhancement, Cdk2 H71C (Cdk2(H71C) (C177A)) | Rate constant with Cdk2 H71C (Cdk2(H71C) (C177A)) | Rate enhancement, Cdk2 N272 (Cdk2(N272C) (C177A)) | Rate constant with Cdk2 N272C (Cdk2(N272C) (C177A)) | Rate enhancement, Cdk2 S276C (Cdk2(S276C) (C177A)) | Rate constant with Cdk2 S276C (Cdk2(S276C) (C177A)) | Rate constant with Cdk2 (k(Cdk2)) [1] | Rate enhancement, Cdk2 WT [1] | Rate constant with Cdk2 WT [1] | k(Cdk2)/k(Cdk2_mut) rate enhancement [1] | k(Cdk2)/k(GSH) rate enhancement [1] | Rate enhancement, Cdk2 F80C (Cdk2(C177A, F80C)) | Rate constant with Cdk2 F80C (Cdk2(C177A, F80C)) | Rate enhancement, Cdk2 R122C (Cdk2(R122C) (C177A)) | Rate enhancement, Cdk2 T182C (Cdk2(T182C) (C177A)) | Rate constant with Cdk2 T182C (Cdk2(T182C) (C177A)) | Rate constant with Cdk2[C177A, F80C, K278C] (k(Cdk2_mut)) (Cdk2[C177A, F80C, K278C]) | Rate enhancement, Cdk2 S181C (Cdk2(S181C) (C177A)) | Compound | Rate constant with glutathione (k(GSH)) [2] | Rate constant with Glutathione [2] | also measured
1.254 | 0.02185 | 1.548 | 0.02696 | 1.776 | 0.03094 | 0.02004 | 1.15 | 0.02004 | 0.1472 | 1.152 | 4.984 | 0.08682 | 0.7819 | 18.35 | 0.3197 | 0.1361 | 2.069 | C=CC(=O)N1CCc2sccc2C1c1cccs1 (stereo not drawn) [CA-056] | 0.0174 | 0.01742 | Rate constant with Cdk2 R122C (Cdk2(R122C) (C177A)): 0.01362; Rate constant with Cdk2 S181C (Cdk2(S181C) (C177A)): 0.03604
0 | – | 0.5049 | 0.003673 | 0.1622 | 0.00118 | 0.00116 | 0.1591 | 0.001157 | 0.5905 | 0.2873 | 0.2437 | 0.001773 | 0.2392 | 0.1316 | 0.0009576 | 0.00196 | 0.09002 | C=CC(=O)NC1CCN(Cc2ccccc2)CC1 [BN-78] | 0.00403 | 0.007274 | Rate constant with Cdk2 R122C (Cdk2(R122C) (C177A)): 0.00174; Rate constant with Cdk2 S181C (Cdk2(S181C) (C177A)): 0.0006548

Continued, compound first:

Compound | Rate enhancement, Cdk2 H71C (Cdk2(H71C) (C177A)) | Rate constant with Cdk2 H71C (Cdk2(H71C) (C177A)) | Rate enhancement, Cdk2 N272 (Cdk2(N272C) (C177A)) | Rate constant with Cdk2 N272C (Cdk2(N272C) (C177A)) | Rate enhancement, Cdk2 S276C (Cdk2(S276C) (C177A)) | Rate constant with Cdk2 S276C (Cdk2(S276C) (C177A)) | Rate constant with Cdk2 (k(Cdk2)) [1] | Rate enhancement, Cdk2 WT [1] | Rate constant with Cdk2 WT [1] | k(Cdk2)/k(Cdk2_mut) rate enhancement [1] | k(Cdk2)/k(GSH) rate enhancement [1] | Rate enhancement, Cdk2 F80C (Cdk2(C177A, F80C)) | Rate constant with Cdk2 F80C (Cdk2(C177A, F80C)) | Rate enhancement, Cdk2 R122C (Cdk2(R122C) (C177A)) | Rate enhancement, Cdk2 T182C (Cdk2(T182C) (C177A)) | Rate constant with Cdk2 T182C (Cdk2(T182C) (C177A)) | Rate constant with Cdk2[C177A, F80C, K278C] (k(Cdk2_mut)) (Cdk2[C177A, F80C, K278C]) | Rate enhancement, Cdk2 S181C (Cdk2(S181C) (C177A)) | Rate constant with glutathione (k(GSH)) [2] | Rate constant with Glutathione [2] | also measured
C=CC(=O)NCCNC(=O)C1CCCN1S(=O)(=O)c1ccccc1 (stereo not drawn) [CA-224] | 0.8417 | 0.003169 | 0.5596 | 0.002107 | 0.1717 | 0.0006465 | 0.00155 | 0.4112 | 0.001548 | 0.4329 | 0.3045 | 0.1623 | 0.000611 | 0 | 1.292 | 0.004866 | 0.00358 | 0 | 0.00508 | 0.003765 | –
C=CC(=O)Nc1cccc(-c2nnnn2C2CC2)c1 [CA-057] | 1.636 | 0.04338 | 2.885 | 0.07649 | 1.606 | 0.04258 | 0.0716 | 2.701 | 0.0716 | 0.7607 | 2.77 | 2.139 | 0.05671 | 1.176 | 18.51 | 0.4908 | 0.09413 | 1.069 | 0.02585 | 0.02651 | Rate constant with Cdk2 R122C (Cdk2(R122C) (C177A)): 0.03118; Rate constant with Cdk2 S181C (Cdk2(S181C) (C177A)): 0.02834
C=CC(=O)Nc1cccc(C(F)(F)F)c1 [EL-1007] | 0.2924 | 0.007199 | 0.3406 | 0.008386 | 1.314 | 0.03236 | 0.035 and 0.03473 | 1.411 | 0.03473 | 0.5928 | 1.4 and 1.411 | 1.215 | 0.02991 | 0.6852 | 2.5 | 0.06154 | 0.05859 | 0.487 | 0.025 and 0.02461 | 0.02462 | hit classification, Example 1 ([1]; hits defined as kCdk2/kGSH>5.8 (3 standard deviations over the mean)): negative compound; Rate constant with Cdk2 R122C (Cdk2(R122C) (C177A)): 0.01687; Rate constant with Cdk2 S181C (Cdk2(S181C) (C177A)): 0.01199
